Calls of active or inactive are those of the source. The rule behind the calls is not given here.
Assays:
[1] = test system: Entamoeba histolytica; test: Antimicrobial activity against Entamoeba histolytica […] trophozoites infected in Syrian hamster assessed as triglycerides level at 0.1 mg/kg, ip at 4 days post infection and measured on day 8 (reference value: 395 +/- 41 mg/dl); assay type: functional, HM-1:IMSS; details: time 4 day
[2] = test system: Entamoeba histolytica; test: Antimicrobial activity against Entamoeba histolytica […] trophozoites infected in Syrian hamster assessed as inhibition of amoebic liver abscess at 0.1 mg/kg, ip at 4 days post infection and measured on day 8 by NMR analysis; assay type: functional, organism-based; details: HM-1:IMSS, time 4.0 day
[3] = test system: Entamoeba histolytica; test: Antimicrobial activity against Entamoeba histolytica […] trophozoites infected in Syrian hamster assessed as inhibition of amoebic liver abscess by abundant monocytes at 0.1 mg/kg, ip at 4 days post infection and measured on day 8 by H and E staining based microscopic method; assay type: functional, organism-based; details: HM-1:IMSS, time 4.0 day
[4] = test system: CHO-K1; test: Cytotoxicity against CHO-K1 cells assessed as reduction in cell viability after 24 hrs by MTT assay; assay type: cell-based; details: Cricetulus griseus, CHO-K1, 24 h
[5] = test system: Entamoeba histolytica; test: Induction of apoptosis in Entamoeba histolytica […] trophozoites assessed as necrotic cells at IC50 concentration after 48 hrs by annexin-V-FITC/propidium iodide staining based flow cytometric analysis (reference value: 0.4%); assay type: functional, HM-1:IMSS
[6] = test system: Entamoeba histolytica; test: Antimicrobial activity against Entamoeba histolytica […] trophozoites infected in Syrian hamster assessed as glucose level at 0.1 mg/kg, ip at 4 days post infection and measured on day 8 (reference value: 126 +/- 18 mg/dl); assay type: functional, HM-1:IMSS; details: time 4 day
[7] = test system: Entamoeba histolytica; test: Antimicrobial activity against Entamoeba histolytica […] trophozoites assessed as decrease in size of cells at IC50 concentration after 48 hrs by uranyl acetate staining based TEM analysis; assay type: functional, organism-based; details: HM-1:IMSS
[8] = test system: Entamoeba histolytica; test: Induction of DNA fragmentation in Entamoeba histolytica […] trophozoites at IC50 concentration after 1 hr by TUNEL assay relative to control; assay type: functional, HM-1:IMSS
[9] = test system: Entamoeba histolytica; test: Antimicrobial activity against Entamoeba histolytica […] trophozoites infected in Syrian hamster assessed as inhibition of amoebic liver abscess by measuring liver weight at 0.1 mg/kg, ip at 4 days post infection and measured on day 8 relative to control; assay type: functional; details: HM-1:IMSS, 96 h, time 4 day
[10] = test system: Entamoeba histolytica; test: Induction of apoptosis in Entamoeba histolytica […] trophozoites assessed as viable cells at IC50 concentration after 48 hrs by annexin-V-FITC/propidium iodide staining based flow cytometric analysis (reference value: 98%); assay type: functional, HM-1:IMSS
[11] = test system: Entamoeba histolytica; test: Binding affinity to Entamoeba histolytica […] trophozoites actin assessed as induction of polarization of polymerized actin at IC50 concentration incubated for 1 hrs by […] staining based confocal microscopic analysis
[12] = test system: Entamoeba histolytica; test: Antimicrobial activity against Entamoeba histolytica […] trophozoites infected in Syrian hamster assessed as inhibition of amoebic liver abscess by measuring edema at 0.1 mg/kg, ip at 4 days post infection and measured on day 8 by H and E staining based microscopic method; assay type: functional, organism-based; details: HM-1:IMSS, time 4.0 day
[13] = test system: Entamoeba histolytica; test: Antimicrobial activity against Entamoeba histolytica […] trophozoites infected in Syrian hamster assessed as ALT level at 0.1 mg/kg, ip at 4 days post infection and measured on day 8 (reference value: 276 +/- 24 U/L); assay type: functional, HM-1:IMSS; details: time 4 day
[14] = test system: Entamoeba histolytica; test: Antimicrobial activity against Entamoeba histolytica […] trophozoites infected in Syrian hamster assessed as platelets at 0.1 mg/kg, ip at 4 days post infection and measured on day 8 (reference value: 439 +/- 108 […]); assay type: functional, HM-1:IMSS; details: time 4 day
[15] = test system: Entamoeba histolytica; test: Antimicrobial activity against Entamoeba histolytica HM1:MMS assessed as reduction in amoeba growth; assay type: functional, organism-based; details: HM-1:IMSS
[16] = test system: Entamoeba histolytica; test: Antimicrobial activity against Entamoeba histolytica […] trophozoites infected in Syrian hamster assessed as ALP level at 0.1 mg/kg, ip at 4 days post infection and measured on day 8 (reference value: 638 +/- 50 U/L); assay type: functional, HM-1:IMSS; details: time 4 day
[17] = test system: Entamoeba histolytica; test: Induction of apoptosis in Entamoeba histolytica […] trophozoites assessed as late apoptotic cells at IC50 concentration after 48 hrs by annexin-V-FITC/propidium iodide staining based flow cytometric analysis (reference value: 0.7%); assay type: functional, HM-1:IMSS
[18] = test system: Entamoeba histolytica; test: Antimicrobial activity against Entamoeba histolytica […] trophozoites infected in Syrian hamster assessed as creatinine level at 0.1 mg/kg, ip at 4 days post infection and measured on day 8 (reference value: 0.9 +/- 0.06 mg/dl); assay type: functional, HM-1:IMSS; details: time 4 day
[19] = test system: Entamoeba histolytica; test: Antimicrobial activity against Entamoeba histolytica […] trophozoites infected in Syrian hamster assessed as total bilirubin level at 0.1 mg/kg, ip at 4 days post infection and measured on day 8 (reference value: 0.8 +/- 0.2 mg/dl); assay type: functional, HM-1:IMSS; details: time 4 day
[20] = test system: BEAS-2B; test: Cytotoxicity against human BEAS-2B cells assessed as reduction in cell viability after 24 hrs by MTT assay; assay type: cell-based
[21] = test system: Entamoeba histolytica; test: Antimicrobial activity against Entamoeba histolytica […] trophozoites assessed as abnormal condensation of chromatin at IC50 concentration after 48 hrs by uranyl acetate staining based TEM analysis; assay type: functional, organism-based; details: HM-1:IMSS
[22] = test system: Entamoeba histolytica; test: Induction of ROS generation in Entamoeba histolytica […] trophozoites at IC50 concentration incubated for 1 hr in presence of catalase by DCFDA staining based assay relative to control; assay type: functional, HM-1:IMSS
[23] = test system: Entamoeba histolytica; test: Antimicrobial activity against Entamoeba histolytica […] trophozoites infected in Syrian hamster assessed as blood ureic nitrogen level at 0.1 mg/kg, ip at 4 days post infection and measured on day 8 (reference value: […]); assay type: functional, HM-1:IMSS; details: time 4 day
[24] = test system: Entamoeba histolytica; test: Antimicrobial activity against Entamoeba histolytica […] trophozoites infected in Syrian hamster assessed as inhibition of amoebic liver abscess by measuring vascular congestion at 0.1 mg/kg, ip at 4 days post infection and measured on day 8 by H and E staining based microscopic method; assay type: functional, organism-based; details: HM-1:IMSS, time 4.0 day
[25] = test system: Entamoeba histolytica; test: Induction of apoptosis in Entamoeba histolytica […] trophozoites assessed as early apoptotic cells at IC50 concentration after 48 hrs by annexin-V-FITC/propidium iodide staining based flow cytometric analysis (reference value: 0.9%); assay type: functional, HM-1:IMSS
[26] = test system: Entamoeba histolytica; test: Induction of ROS generation in Entamoeba histolytica […] trophozoites at IC50 concentration incubated for 1 hr by DCFDA staining based assay; assay type: functional, organism-based; details: HM-1:IMSS
[27] = test system: Entamoeba histolytica; test: Antimicrobial activity against Entamoeba histolytica […] trophozoites infected in Syrian hamster assessed as urea level at 0.1 mg/kg, ip at 4 days post infection and measured on day 8 (reference value: 14 +/- 1 mg/dl); assay type: functional, HM-1:IMSS; details: time 4 day
[28] = test system: Entamoeba histolytica; test: Antimicrobial activity against Entamoeba histolytica […] trophozoites assessed as decrease in granularity at IC50 concentration after 48 hrs by uranyl acetate staining based TEM analysis; assay type: functional, organism-based; details: HM-1:IMSS
[29] = test system: Entamoeba histolytica; test: Antimicrobial activity against Entamoeba histolytica […] trophozoites assessed as decrease in number of vacuoles at IC50 concentration after 48 hrs by uranyl acetate staining based TEM analysis; assay type: functional, organism-based; details: HM-1:IMSS

With `C[C@]12C[C@H](c3ccoc3)OC(=O)[C@H]1CC[C@@]13COC(=O)C1=CC=C[C@H]32` the Activity [1] was 127 mg/dL, the inhibition [2] was “Active” and the inhibition [3] was “Active”. It also gave an IC50 [4] of 880 µM, an Activity [5] of 9.4% and an Activity [6] of 130 mg/dL. For the same molecule, the Activity [7] was “Active”, the Activity [8] was 78% and the inhibition in vivo at 0.1 mg/kg [9] was 93.3%. The Activity [10] was 12.6%, the Activity [11] was “Active” and the inhibition [12] was “Active”. For the same molecule, the Activity [13] was 81 U/L, the Activity [14] was 320 thousand/mm3 and the IC50 [15] was 27.7 µM. For the same molecule, the Activity [16] was 324 U/L, the Activity [17] was 58.6% and the Activity [18] was 0.6 mg/dL. The Activity [19] was 0.4 mg/dL, the IC50 [20] was 600 µM and the Activity [21] was “Active”. For the same molecule, the Activity [22] was 52.68%, the Activity [23] was 17 mg/dL and the inhibition [24] was “Active”. For the same molecule, the Activity [25] was 19.5%, the Activity [26] was “Active” and the Activity [27] was 45 mg/dL. For the same molecule, the Activity [28] was “Active” and the Activity [29] was “Active”.

Reference: ChEMBL document CHEMBL4673317, “Linearolactone and Kaempferol Disrupt the Actin Cytoskeleton in Entamoeba histolytica: Inhibition of Amoebic Liver Abscess Development” (J Nat Prod, 2020)
